Source: US7711497B2, “Method of identifying calcium-binding sites in gamma-crystallin useful for management of cataract” (Council of Scientific and Industrial Research, priority 2002, dated 2010)
Where no end group is shown, it is not given here.

B1: AIMI: single crystallin domain of AIMI (absent in melanoma), 1022-1117 residues, comprising two Greek keys (protein, UniProt Q9Y4K1 1022-1117, looked up, fragment)
chain: AAKSGPQVIPPASEKTLPIQAQSQGSRTPLMAESSPTNSPSSGNHLATPQRPDQTVTNGQDSPASLLNISAGSDDSVFDSSSDMEKFTEIIKQMDS
modifications: crystallin domain
notes: single crystallin domain of AIMI (absent in melanoma), 1022-1117 residues, comprising two Greek keys

Tests used:
[1] = Solubility of Greek key peptides; assay type: physicochemical; conditions: aqueous medium / water
[2] = Stains-all binding assay (induced CD); conditions: peptides; dye 43 μM
Procedure: Stains-all Binding Assay-Aliquots of protein solutions were added to the Stains-all solution and mixed gently. Circular dichroism induced in the achiral dye upon binding to the protein was measured in the visible region of the spectrum (400-700 nm). The dye solution and the crystallins were prepared in 2 mM MOPS buffer, pH 7.2, containing 30% ethylene glycol (34, 35). Ellipticities were expressed in millidegrees.
CD spectra of Stains-all induced upon binding to crystallin were recorded in 2 mM MOPS buffer, pH 7.2, containing 30% ethylene glycol, path length 1 cm. Dye concentration in all experiments was 16 μM. The ellipticity data are represented in millidegrees. A, CD spectra recorded with increasing concentration of -crystallin; 1, 0.026 mg/ml (---); 2, 0.078 mg/ml (- - -); 3, 0.13 mg/ml -.-.-. and 4, 0.156 mg/ml (. . .). B, effect of calcium on Stains-all--crystallin complex spectra. Calcium was added in the dye-protein mixture (-crystallin concentration was […]), and CD was recorded. Calcium concentrations used are as follows: 1, no calcium (---); 2, 50 μM calcium (- - - -); 3, 100 μM calcium (. . .); 4, 200 μM calcium (-.-.-.); and 5, 300 μM calcium (-..-..). The J band was abolished with 300-μM calcium.
CD spectra of Stains-all induced upon binding to peptides were recorded. Dye concentration in all experiments was 43 μM. The ellipticity data are represented in millidegrees. a, CD spectra were recorded with increasing concentration of the wild type peptide g3; 0.013 mg/ml (---), 0.037 mg/ml (- - -), and 0.057 mg/ml (. . . .). b, effect of calcium on Stains-all-peptide complex. Calcium was added to the dye-peptide mixture (peptide concentration was 57 μg/ml) and calcium concentrations used were: no calcium (---), 0.7 mM calcium (- - - -), and 7.5 mM calcium (. . . .). c and d represent the Stains-all binding of the modified peptides, g3a and g3b. Identical concentrations of dye and peptides were used.

[3] = 45Ca overlay method (peptide dot-blot); assay type: binding; conditions: dot-blot on polyvinylidene difluoride membrane
Procedure: Calcium Binding Studies by ^45Ca Overlay Method-Calcium binding to peptides was done by ^45Ca overlay method of Maruyama et al, 133). […] of peptides were spotted onto a polyvinylidene difluoride membrane by dot-blot apparatus. The membrane was equilibrated in a solution containing 10-mM imidazole HCl. pH 6.8, 60 mM KCl, 5 mM MgCl2 and then incubated for 15 min at 25° C. in the same buffer containing 1 microCi/mil ^45Ca. The membrane was then rinsed twice in 45% ethanol, blotted dry, and exposed to PhosphorImager screen, and the signal was read in Phosphorimager (Fuji Bas-1800).
The wild type peptide g3, its variants (g3a and g3b) and s3a were spotted onto a polyvinylidene difluoride membrane and detected by ^45Ca overlay. For a positive control, EF-hand peptide corresponding to site 4 of rat neuronal calcium sensor-1 was used; bovine serum albumin (BSA) was used as a negative control.

[4] = Calcium binding of single crystallin domain of AIMI; conditions: compared with gamma-crystallin

| Molecule | solubility [1] | Stains-all binding, induced CD band [2] | 45Ca binding [3] | calcium binding affinity [4] |
| --- | --- | --- | --- | --- |
| RMRIYERDDFRGQMSEITDDCPSLQDRFHLTEVHSLNVLEGS [g3] | fairly soluble in aqueous medium |  |  |  |
| s3a: control peptide, first Greek key motif of spherulin 3a (residues 14-56), Seq. ID No. 4 (GEVFLYKHVNFQGDSWKVTGNVYDFRSVSGLNDVVSSVKVGPN) | not soluble in water | binds the dye and induces a calcium-sensitive band at 470-475 nm |  |  |
| g3b: g3 mutant with aspartates 108 and 109 replaced by Lys, Seq. ID No. 3 (RMRIYERDDFRGQMSEITKKCPSLQDRFHLTEVHSLNVLEGS) |  | binds the dye and induces the band | do not show detectable binding |  |
| g3a: g3 mutant with Glu-95 and Glu-121 modified to Lys, Seq. ID No. 2 (RMRIYKRDDFRGQMSEITDDCPSLQDRFHLTKVHSLNVLEGS) |  | decreased several fold | do not show detectable binding |  |
| B1 |  |  |  | binds calcium with a comparative affinity to gamma-crystallin |
